From PMC6105524 (Lipids, 2018)
Where two headings read alike, the source gives them in different places.

Experiments:
[1] = compartmental modeling, humans; ref Pawlosky et al. 2001; cited from earlier work
[2] = ref Domenichiello et al. 2014, Domenichiello et al. 2016, Metherel et al. 2018, cited from earlier work
[3] = format: in vivo, human; conditions: for Time at Smax: 8 h iv infusion of d5-ALA-albumin 0.78 mg/kg BW/hr; for F (turnover of esterified n-3 HUFA in plasma): Jsyn / amount in plasma total lipids

In the case of `CC/C=C\C/C=C\C/C=C\C/C=C\C/C=C\C/C=C\CCC(=O)O` [DHA, Docosahexaenoic acid], the “Rate of mass flow from immediate precursor” value [1] is listed as 0.464 µmol/day, the “Whole body synthesis-secretion rate of DHA from circulating ALA” value ([2]; rats consuming a high ALA diet) is listed as 1.5 µmol/day and the “Whole body synthesis-secretion rate of DHA from circulating ALA” value ([2]; rats consuming a low ALA containing diet) is listed as 0.045 µmol/day. The “Smax (maximal first derivative of plasma total amount time-course of newly synthesized d5-n-3 HUFA)” value ([3]; subject S01) was 0.67 nmol/min, the “k1 (synthesis-secretion coefficient)” value ([3]; subject S01) was 0.39 mL/min and the “Time at Smax” value ([3]; subject S01) was 109 min. For the same compound, the “F (turnover of esterified n-3 HUFA in plasma)” value ([3]; subject S01) was 2.6e-06 min⁻¹, the “Jsyn (whole body synthesis-secretion rate from circulating unesterified 18:3n-3)” value ([3]; subject S01, k1 x unesterified ALA 2.52 nmol/mL) was 0.99 nmol/min and the “Smax (maximal first derivative of plasma total amount time-course of newly synthesized d5-n-3 HUFA)” value ([3]; subject S02) was 0.21 nmol/min. For the same compound, the “k1 (synthesis-secretion coefficient)” value ([3]; subject S02) was 0.12 mL/min, the “Time at Smax” value ([3]; subject S02) was 125 min and the “F (turnover of esterified n-3 HUFA in plasma)” value ([3]; subject S02) was 3.7e-06 min⁻¹. The “Jsyn (whole body synthesis-secretion rate from circulating unesterified 18:3n-3)” value ([3]; subject S02, k1 x unesterified ALA 4.74 nmol/mL) was 0.56 nmol/min.
